Measured values as given in PubChem BioAssay AID248 (DTP/NCI, 2004).
“And” between values parts separate entries of the source, which are not always exact repeats. Identical values can stand only once. Toxic doses and inconclusive results are not listed. No stated cut-off is given here; in the data, active means T/C of 150% or more; inactive means T/C below 125%.

System: L1210 leukemia ip in BDF1 mice, survival T/C
Assay: NCI In Vivo Anticancer Drug Screen. Data for tumor model L1210 Leukemia (intraperitoneal) in B6D2F1 (BDF1) mice
Details: endpoint: mean survival time, higher = longer survival
How it was run: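 Tumor cells were implanted, animals were treated, and survival was followed. The result divides the treated measurement by the vehicle-control measurement.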

[1] = dose: 100.0 mg/kg/injection, schedule: Q01DX001 (ip), vehicle: saline
[2] = dose: 100.0 mg/kg/injection, schedule: Q01DX009 (ip), vehicle: Klucel (hydroxypropylcellulose) (HPC)
[3] = dose: 200.0 mg/kg/injection, schedule: Q01DX001 (ip), vehicle: saline
[4] = dose: 200.0 mg/kg/injection, schedule: Q01DX009 (ip), vehicle: Klucel (hydroxypropylcellulose) (HPC)
[5] = dose: 400.0 mg/kg/injection, schedule: Q01DX001 (ip), vehicle: saline
[6] = dose: 400.0 mg/kg/injection, schedule: Q01DX009 (ip), vehicle: Klucel (hydroxypropylcellulose) (HPC)
[7] = dose: 50.0 mg/kg/injection, schedule: Q01DX009 (ip), vehicle: Klucel (hydroxypropylcellulose) (HPC)
[8] = dose: 100.0 mg/kg/injection, schedule: Q04DX002 (ip), vehicle: Klucel (hydroxypropylcellulose) (HPC)

Measured: T/C

c1ccc2sc(SSc3nc4ccccc4s3)nc2c1
inactive: dose: 50.0 mg/kg/injection, schedule: Q01DX001 (ip), vehicle: saline 96 % of control | [1] 98 % of control | [2] 86 % of control | dose: 100.0 mg/kg/injection, schedule: Q04DX003 (ip), vehicle: Klucel (hydroxypropylcellulose) (HPC) 97 % of control | [3] 92 % of control | [4] 96 % of control | dose: 200.0 mg/kg/injection, schedule: Q04DX003 (ip), vehicle: Klucel (hydroxypropylcellulose) (HPC) 94 % of control | [5] 104 % of control | [6] 90 % of control | dose: 400.0 mg/kg/injection, schedule: Q04DX003 (ip), vehicle: Klucel (hydroxypropylcellulose) (HPC) 90 % of control

CCCCCCCCCCCCCCCCCC(=O)NCNC(=O)CCCCCCCCCCCCCCCCC
inactive: dose: 9.37 mg/kg/injection, schedule: Q01DX009 (ip), vehicle: saline with Tween-80 92 % of control | dose: 18.75 mg/kg/injection, schedule: Q01DX009 (ip), vehicle: saline with Tween-80 90 % of control | dose: 37.5 mg/kg/injection, schedule: Q01DX009 (ip), vehicle: saline with Tween-80 86 % of control and 89 % of control | dose: 37.5 mg/kg/injection, schedule: Q04DX003 (ip), vehicle: saline with Tween-80 89 % of control | dose: 75.0 mg/kg/injection, schedule: Q04DX003 (ip), vehicle: saline with Tween-80 89 % of control | dose: 150.0 mg/kg/injection, schedule: Q04DX003 (ip), vehicle: saline with Tween-80 87 % of control

CC(=O)[C@H]1CC[C@H]2[C@@H]3CCC4=CC(=O)C=C[C@]4(C)[C@H]3C(=O)C[C@]12C
inactive: dose: 25.0 mg/kg/injection, schedule: Q01DX015 (sc), vehicle: steriod suspending solution 98 % of control | dose: 50.0 mg/kg/injection, schedule: Q01DX015 (sc), vehicle: steriod suspending solution 100 % of control | dose: 100.0 mg/kg/injection, schedule: Q01DX009 (sc), vehicle: steriod suspending solution 97 % of control | dose: 100.0 mg/kg/injection, schedule: Q01DX015 (sc), vehicle: steriod suspending solution 93 % of control | dose: 100.0 mg/kg/injection, schedule: Q04DX003 (ip), vehicle: steriod suspending solution 98 % of control | dose: 200.0 mg/kg/injection, schedule: Q01DX009 (sc), vehicle: steriod suspending solution 97 % of control | dose: 200.0 mg/kg/injection, schedule: Q01DX015 (sc), vehicle: steriod suspending solution 104 % of control and 107 % of control | dose: 200.0 mg/kg/injection, schedule: Q04DX003 (ip), vehicle: steriod suspending solution 101 % of control | dose: 400.0 mg/kg/injection, schedule: Q01DX009 (sc), vehicle: steriod suspending solution 100 % of control | dose: 400.0 mg/kg/injection, schedule: Q01DX015 (sc), vehicle: steriod suspending solution 104 % of control | dose: 400.0 mg/kg/injection, schedule: Q04DX003 (ip), vehicle: steriod suspending solution 112 % of control | dose: 800.0 mg/kg/injection, schedule: Q01DX015 (sc), vehicle: steriod suspending solution 104 % of control

Cc1c2c(c(C)c3c1[nH]c1ccccc13)CCN=C2
inactive: dose: 50.0 mg/kg/injection, schedule: Q01DX001 (ip), vehicle: carboxymethylcellulose (CMC) 104 % of control | dose: 100.0 mg/kg/injection, schedule: Q01DX001 (ip), vehicle: carboxymethylcellulose (CMC) 114 % of control | dose: 200.0 mg/kg/injection, schedule: Q01DX001 (ip), vehicle: carboxymethylcellulose (CMC) 104 % of control | dose: 400.0 mg/kg/injection, schedule: Q01DX001 (ip), vehicle: carboxymethylcellulose (CMC) 111 % of control

C=C1N(C)c2ccccc2C1(C)C
inactive: dose: 0.5 mg/kg/injection, schedule: Q01DX015 (ip), vehicle: carboxymethylcellulose (CMC) 97 % of control | dose: 1.0 mg/kg/injection, schedule: Q01DX015 (ip), vehicle: carboxymethylcellulose (CMC) 101 % of control | dose: 2.0 mg/kg/injection, schedule: Q01DX015 (ip), vehicle: carboxymethylcellulose (CMC) 104 % of control | dose: 4.0 mg/kg/injection, schedule: Q01DX015 (ip), vehicle: carboxymethylcellulose (CMC) 97 % of control and 123 % of control | dose: 8.0 mg/kg/injection, schedule: Q01DX015 (ip), vehicle: carboxymethylcellulose (CMC) 123 % of control

O=C(Nc1ccccc1)c1ccco1
inactive: [7] 102 % of control | [2] 102 % of control | [8] 102 % of control | [4] 100 % of control | dose: 200.0 mg/kg/injection, schedule: Q04DX002 (ip), vehicle: Klucel (hydroxypropylcellulose) (HPC) 98 % of control | dose: 400.0 mg/kg/injection, schedule: Q04DX002 (ip), vehicle: Klucel (hydroxypropylcellulose) (HPC) 91 % of control

CCN(CC)C(=S)SS(C)(=O)=O
inactive: [1] 101 % of control | dose: 100.0 mg/kg/injection, schedule: Q04DX003 (ip), vehicle: acetone 97 % of control | [3] 97 % of control | dose: 200.0 mg/kg/injection, schedule: Q04DX003 (ip), vehicle: acetone 103 % of control | [5] 97 % of control | dose: 400.0 mg/kg/injection, schedule: Q04DX003 (ip), vehicle: acetone 101 % of control

C1CCNNC1
inactive: [1] 104 % of control | dose: 100.0 mg/kg/injection, schedule: Q04DX003 (ip), vehicle: saline 114 % of control | [3] 98 % of control | dose: 200.0 mg/kg/injection, schedule: Q04DX003 (ip), vehicle: saline 94 % of control | [5] 95 % of control | dose: 400.0 mg/kg/injection, schedule: Q04DX003 (ip), vehicle: saline 89 % of control

CCCCCCCC/C=C\CCCCCCCC(=O)OCCCCCCCCCCCCCCCCCC
inactive: [2] 104 % of control | dose: 100.0 mg/kg/injection, schedule: Q01DX009 (ip), vehicle: saline sonified 105 % of control | [4] 91 % of control | dose: 200.0 mg/kg/injection, schedule: Q01DX009 (ip), vehicle: saline sonified 93 % of control | [6] 105 % of control | dose: 400.0 mg/kg/injection, schedule: Q01DX009 (ip), vehicle: saline sonified 98 % of control

O=C(C[n+]1ccc2ccccc2c1)c1cccs1
inactive: dose: 25.0 mg/kg/injection, schedule: Q04DX002 (ip), vehicle: Klucel (hydroxypropylcellulose) (HPC) 90 % of control and 91 % of control | dose: 50.0 mg/kg/injection, schedule: Q04DX002 (ip), vehicle: Klucel (hydroxypropylcellulose) (HPC) 95 % of control and 90 % of control | [8] 98 % of control

CC1CN1C1=C(F)C(=O)C(N2CC2C)=C(F)C1=O (stereo unspecified)
inactive: dose: 0.19 mg/kg/injection, schedule: Q01DX009 (ip), vehicle: Klucel (hydroxypropylcellulose) (HPC) 105 % of control | dose: 0.39 mg/kg/injection, schedule: Q01DX009 (ip), vehicle: Klucel (hydroxypropylcellulose) (HPC) 104 % of control | dose: 0.78 mg/kg/injection, schedule: Q01DX009 (ip), vehicle: Klucel (hydroxypropylcellulose) (HPC) 102 % of control | dose: 0.78 mg/kg/injection, schedule: Q04DX003 (ip), vehicle: Klucel (hydroxypropylcellulose) (HPC) 103 % of control | dose: 1.56 mg/kg/injection, schedule: Q01DX009 (ip), vehicle: Klucel (hydroxypropylcellulose) (HPC) 100 % of control | dose: 1.56 mg/kg/injection, schedule: Q04DX003 (ip), vehicle: Klucel (hydroxypropylcellulose) (HPC) 105 % of control | dose: 3.12 mg/kg/injection, schedule: Q01DX009 (ip), vehicle: Klucel (hydroxypropylcellulose) (HPC) 100 % of control | dose: 3.12 mg/kg/injection, schedule: Q04DX003 (ip), vehicle: Klucel (hydroxypropylcellulose) (HPC) 101 % of control | dose: 4.6 mg/kg/injection, schedule: Q01DX009 (ip), vehicle: Klucel (hydroxypropylcellulose) (HPC) 103 % of control

CCCCNC(=O)Oc1c(Cl)cc(Cl)c(Cl)c1[N+](=O)[O-]
inactive: dose: 12.5 mg/kg/injection, schedule: Q01DX009 (ip), vehicle: Klucel (hydroxypropylcellulose) (HPC) 96 % of control | dose: 25.0 mg/kg/injection, schedule: Q01DX009 (ip), vehicle: Klucel (hydroxypropylcellulose) (HPC) 112 % of control | [7] 101 % of control
